The values below come from PMC7595150, “Amorphous solid dispersions of enzalutamide and novel polysaccharide derivatives: investigation of relationships between polymer structure and performance” (Scientific Reports, 2020).

Values after ≈ are worked out from the molar mass of the structure shown. Marks after values point to notes of the source that are not given here.

For data set [1] the following is noted: cited from earlier work.
Another data set is described as follows: Aqueous solubility. It counts as physicochemical.
A short description of data set [2]: Nucleation induction time of supersaturated enzalutamide solutions with pre-dissolved polymer (UV dip probe). The following applies: absence of polymers; initial 70 μg/mL enzalutamide, pH 6.5 phosphate buffer, 37 °C. It counts as physicochemical. How it is done: The average time to detect the onset of crystallization for supersaturated solutions of enzalutamide was determined in phosphate buffer (pH 6.5, 50 mM) containing pre-dissolved polymer using an in situ UV dip probe as described by Mosquera-Giraldo et al.[11]. […] For enzalutamide the absorbance maximum is 237 nm and the baseline wavelength used was 446 nm. […] Next, a methanolic solution of enzalutamide (245 µL, 10 mg/mL) was added to the polymeric solution (35 mL) magnetically stirred at 300 rpm and maintained at 37 °C, leading to an initial enzalutamide concentration of 70 µg/mL. The experiments were performed in triplicate.

On to `CNC(=O)c1ccc(N2C(=S)N(c3ccc(C#N)c(C(F)(F)F)c3)C(=O)C2(C)C)cc1F` [Enzalutamide], for which, in data set [1] (amorphous solubility of the drug), the “Aqueous solubility (amorphous solubility)” value is reported as 0.042^a mg/mL. Besides, in data set [1] (when 70 μg/mL enzalutamide is added to buffer, rest is colloidal amorphous aggregates), the “Free drug molecularly dissolved” value was “approximately 42 μg/mL”. The “Supersaturation ratio (S, amorphous solubility/crystalline solubility)” value in “Aqueous solubility” was “approximately 14.5”. Besides, in the data set “Aqueous solubility” (crystalline form), the solubility was found to be 2.9 µg/mL (≈ 6.24 µM). In addition, the Nucleation induction time in data set [2] is ~ 15 min.
